Patent US20230357099A1, “PYRAZOLO [3,4-B] PYRIDINE-4-CARBOXAMIDE NITRIFICATION INHIBITOR” (EUROCHEM ANTWERPTEN, priority 2020, published 2023)

How the values were obtained:
[1] = system: ABIL (ammonia-binding liquid inoculum), nitrifying microbial enrichment containing both AOA and AOB; assay: Nitrification inhibition assay on ABIL (ammonium consumption); format: cell-based; settings: 10 µM compound; structural variants outside formula (I); read-out: Relative nitrification (%) by ABIL treated with 10 µM compound
[2] = system: Nitrososphaera viennensis; assay: Nitrification inhibition assay on Nitrososphaera viennensis (nitrite, Griess); format: cell-based, Nitrososphaera viennensis EN76T; settings: Nitrososphaera viennensis; 2.5 µM compound; structural variants outside formula (I); read-out: Relative nitrification (%) by Nitrososphaera viennensis treated with 2.5 µM compound
Method: Nitrite (NO2—) was measured using the Griess reagent (Product number: G4410, Griess reagent (modified), Sigma-Aldrich). Equal volumes of the sample or a diluted sample and the Griess reagent were mixed a transparent flat bottom multi-well plate and incubated in the dark at room temperature for 10 minutes. Absorbance values at 540 nm were measured spectrophotometrically (EnVision, Perkin Elmer®) and used to calculate the [NO2—] by use of a standard curve.
A liquid culture sample of Nitrososphaera viennensis EN76T was kindly supplied by prof. dr. Christa Schleper (University of Vienna). Cells were grown in fresh water medium (FWM) as described earlier by Tourna et al. (2011). All necessary materials were rinsed with 1 % HCl and washed at least 3 times with MilliQ water. FWM (pH 7.5 (KOH)) contained 17 mM NaCl, 3 mM MgCl2 × 2 H2O, 680 µM CaCl2 × 2 H2O, 1.47 mM KH2PO4 and 6.71 mM KCI. After autoclaving, successively 1 mL non-chelated trace element mixture (101 mM HCl, 488 µM H3BO3, 508 µM MnCl2 × 4 H2O, 803 µM CoCl2 × 6 H2O, 101 µM NiCl2 × 6 H2O, 12 µM CuCl2 × 2 H2O, 503 µM ZnSO4 × 7 H2O and 150 µM Na2MoO4 × 2 H2O), 1 mL Fe-NaEDTA (7.5 mM), 1 mL vitamin solution (20 mg/L biotin, 20 mg/L folic acid, 100 mg/L pyridoxine-HCl, 50 mg/L thiamine-HCl, 50 mg/L riboflavin, 50 mg/L nicotinic acid, 50 mg/L DL-pantothenic acid, 50 mg/L P-aminobenzoic acid, 2 g/L choline chloride and 10 mg/L vitamin B12), 2 mL NaHCO3 (1 M), 2 mL kanamycin (100 mg/mL), 2 mL carbenicillin (100 mg/mL), 3 mL NH4Cl (1 M), 10 mL HEPES buffer (1 M, pH 7.6) and 1 mL Na-pyruvate (0.1 M) were added aseptically. All stock-solutions were filter-sterilized, except the autoclaved non-chelated trace element mixture. Cultures were incubated aerobically at 42° C. without shaking in sterile 250-mL Erlenmeyer flasks or 30-mL cultivation tubes (Product number: 216-1290, Quickstart universal containers STERILIN®, VWR) filled with either 100 or 20 mL FWM and sealed with tape (Micropore™ Surgical Tape 1530-1, 3M™). Late-log phase cultures ([NO2-] ≥ 1 mM) were subcultivated by dilution (1:400) in fresh FWM.
7-day old 100 mL cultures grown in 250-mL Erlenmeyer flasks with a [NO2-] ≥ 1 mM were 5 times overconcentrated in fresh FWM by centrifugation (4000 rpm, 15 min, 5° C.) in 50 mL centrifuge tubes (Cat. No. 430829, CentriStar™ Conical Centrifuge Tubes, Corning®). Per batch, all the cultures were pooled in one sterile Schott bottle. Subsequently, 200 µl/well was dispensed at low pipetting speed in transparent flat bottom 96-well plates (Cat. No. 353072, Falcon® 96 Well Clear Microplate, Corning®) using 150 µl wide-bore tips (two steps of 100 µl) on a Tecan robot (Freedom EVO®, Tecan). 0.5 µl of 99.99 % DMSO (negative control - final concentration 0.25%) and 0.5 µl of 0.04 M PTIO (2-phenyl-4,4,5,5-tetramethylimidazoline-1-oxyl 3-oxide, positive control - final concentration 100 µM) were added manually to the first and last column respectively. Finally, 0.5 µl of candidate nitrification inhibitors (1 mM stock solutions in 99.99% DMSO - final concentration 2.5 µM) were added to the central wells using a pin tool on a Tecan robot (Freedom EVO®, Tecan). In between additions, the pins were washed in sequence with 99.5% DMSO, MilliQ water and 100% ethanol and air-dried. All plates were sealed with tape (Micropore™ Surgical Tape 1530-1, 3M™), stacked per 4 on top of a 96-well plate filled with 100 µl MilliQ per well and covered with aluminum foil. Position effects of the stacks within the incubator were considered. Plates were incubated at 42° C. without shaking. 24 h later, NO2— was measured spectrophotometrically at 540 nm (EnVision, Perkin Elmer®). […]

Row | Structure (SMILES) | activity at 10 µM [1] [%] | activity at 2.5 µM [2] [%]
1 | Cc1nc2c(c(C)nn2C)c(C)c1CCC(=O)NCCc1ccc2c(c1)OCO2 [Example 47] | 100 | 100
2 | Cc1nc2c(cc1C(=O)NC(C)C1CCCO1)c(C)nn2C (stereo not shown) [Example 48] | 100 | 99
3 | COCCC1(C(=O)Nc2cnc3[nH]nc(C)c3c2)CCCC1 [Example 49] | 100 | 100
4 | CC(C)n1ncc2cc(NC(=O)C3(C)CC3(Cl)Cl)cnc21 (stereo not shown) [Example 50] | 100 | 92
5 | CC(CCc1ccco1)NC(=O)c1cnc2c(cnn2Cc2ccccc2)c1 (stereo not shown) [Example 51] | 100 | 91
6 | CC(NC(=O)c1cnc2c(cnn2C(C)C)c1)C1CCCO1 (stereo not shown) [Example 52] | 100 | 100
7 | CC(C)n1ncc2cc(NC(=O)C3=CN4CCS(=O)(=O)N=C4C=C3)cnc21 [Example 53] | 100 | 95
8 | CCC(CC)CN(CC)C(=O)c1cnc2c(c1)c(C)nn2C [Example 54] | 100 | 96
9 | Cc1nnc(NC(=O)c2cnc3c(cnn3C(C)C)c2)s1 [Example 55] | 100 | 100
10 | CC(C)n1ncc2cc(NC(=O)Cc3ccc(F)cc3)cnc21 [Example 56] | 100 | 100
11 | Cc1nc2c(c(C)nn2C)c(C)c1CCC(=O)NC(C)C1CCCO1 (stereo not shown) [Example 57] | 100 | 97
12 | CCC1CN(C(=O)CCc2c(C)nc3c(c(C)nn3C)c2C)CCO1 (stereo not shown) [Example 58] | 100 | 98
13 | Cc1nn(C)c2ncc(CNCc3ccc(N4CCCC4)nc3)cc12 [Example 59] | 100 | 92
14 | Cc1nc2c(c(C)nn2C)c(C)c1CCC(=O)N1CCOCC1 [Example 60] | 100 | 100
15 | CC(C)n1ncc2cc(C(=O)O)cnc21 [Example 61] | 100 | 100
16 | Cc1nc2c(cnn2C(C)C)cc1C(=O)NC(C)c1ccccc1Br (stereo not shown) [Example 62] | 100 | 100
17 | Cc1nc2c(cnn2C(C)C)c(C)c1CCC(=O)NC12CC3CC(CC(C3)C1)C2 [Example 63] | 100 | 100
18 | CCC(C)(CC)NC(=O)COc1nn(C)c2nc(C)cc(C)c12 [Example 64] | 100 | 100
19 | CC(C)n1ncc2cc(NC(=O)CCc3cc4ccccc4o3)cnc21 [Example 65] | 100 | 100
20 | Cc1cc(-c2nc(-c3ccc4c(c3)OCO4)no2)c2c(C)nn(C)c2n1 [Example 66] | 100 | 99
21 | Cc1cc(C)c2c(OCC(=O)N(CC(F)F)C3CC3)nn(C)c2n1 [Example 67] | 100 | 100
22 | CC(C)n1ncc2cc(NC(=O)CCC(=O)c3ccccc3)cnc21 [Example 68] | 100 | 100
23 | CNC(=O)C1(C(=O)Nc2cnc3c(cnn3C(C)C)c2)CC1 [Example 69] | 100 | 100
24 | Cc1n[nH]c2ncc(CNCc3ccc4c(c3)OCO4)cc12 [Example 70] | 100 | 100
25 | Cc1cccc(C)c1OCC(=O)Nc1cnc2c(cnn2C(C)C)c1 [Example 71] | 100 | 94

Row | Structure (SMILES) | activity at 10 µM [1] [%] | activity at 2.5 µM [2] [%]
26 | Cc1nn(-c2ccc(F)cc2)c2nc3c(cc12)C(=O)CC(C)(C)C3 [Example 72] | 100 | 99
27 | CCOc1cc(C(=O)Nc2cnc3c(cnn3C(C)C)c2)c([N+](=O)[O-])cc1OC [Example 73] | 100 | 93
28 | Cc1nc2c(cnn2C(C)C)cc1C(=O)N1CCc2ccccc21 [Example 74] | 100 | 100
29 | Cc1nc2c(c(C)nn2C)c(C)c1CCC(=O)N1CCOCC1C (stereo not shown) [Example 75] | 100 | 100
30 | Cc1nn(C)c2ncc(NC(=O)CCC3CCCO3)cc12 (stereo not shown) [Example 76] | 100 | 100
31 | Cc1nc2c(c(C)nn2C)c(C)c1CCC(=O)Nc1ccccc1C(=O)O [Example 77] | 100 | 100
32 | Cc1nc2c(cnn2C(C)C)cc1C(=O)N1CCSCC1 [Example 78] | 100 | 100
33 | COCCN(C(=O)c1cnc2c(cnn2C(C)C)c1)C1CC1 [Example 79] | 100 | 97
34 | Cc1nc2c(c(C)nn2C)c(C)c1CCC(=O)NCC1CCCO1 (stereo not shown) [Example 80] | 100 | 100
35 | CC(C)n1ncc2cc(C(=O)NCc3ccccc3S(=O)(=O)N3CCCCC3)cnc21 [Example 81] | 100 | 100
36 | Cc1nn(C)c2ncc(CN3CCNCC3C)cc12 (stereo not shown) [Example 82] | 100 | 96
37 | CC(C)n1ncc2cc(NC(=O)N3CCN(S(=O)(=O)N4CCCCCC4)CC3)cnc21 [Example 83] | 100 | 100
38 | CC(C)n1ncc2cc(C(=O)Nc3ccnn3Cc3ccc(Cl)cc3Cl)cnc21 [Example 84] | 100 | 100
39 | CC(C)n1ncc2cc(C(=O)N(C)Cc3nc4ccccc4s3)cnc21 [Example 85] | 100 | 100
40 | Cc1cc(C)nc(-n2nc(C)c3c(C(F)(F)F)cc(-c4cccnc4)nc32)n1 [Example 86] | 100 | 94
41 | CC(=O)c1ccc(OCC(=O)Nc2cnc3c(cnn3C(C)C)c2)cc1 [Example 87] | 100 | 93
42 | CC(C)n1ncc2cc(NC(=O)CN(C)S(=O)(=O)c3cccs3)cnc21 [Example 88] | 100 | 94
43 | C=CCNC(=O)c1cnc2c(cnn2C(C)C)c1 [Example 89] | 100 | 100
44 | Cc1nc2c(cnn2C(C)C)cc1C(=O)NC(C)C1CCCO1 (stereo not shown) [Example 90] | 100 | 93
45 | Cc1nc2c(cnn2C(C)C)cc1C(=O)N1CCCN(C)c2nc3ccccc3nc21 [Example 91] | 100 | 100
46 | CCN(Cc1nc2ccccc2c(=O)[nH]1)C(=O)CCc1c(C)nc2c(cnn2C(C)C)c1C [Example 92] | 100 | 100
47 | COc1ccccc1CN(C)C(=O)c1cc2cnn(C(C)C)c2nc1C [Example 93] | 100 | 100
48 | CC(C)n1ncc2cc(CNc3ccc4[nH]ncc4c3)cnc21 [Example 94] | 92 | 100
49 | Cc1sc2nc(CN3CCCC3)nc(Nc3ccc4cn[nH]c4c3)c2c1C [Example 95] | 97 | 96
50 | N#Cc1nn(CN2CCSCC2)c2ccc(Cl)cc12 [Example 96] | 85 | 96
